Measurements published in patent US20160193206A1, “BET-PROTEIN-INHIBITING DIHYDROPYRIDOPYRAZINONES” (BAYER PHARMA AKTIENGESELLSCHAFT, priority 2012, published 2016).

Columns and labels:
[1] = molecular target: T1, BRD4 bromo domain 1 [BRD4(1)] (Homo sapiens, UniProt O60885); experiment: BRD4(1)/acetylated peptide H4 binding assay (TR-FRET); conditions: inhibition of interaction between His6-tagged BRD4(1) (amino acids 67-152) and acetylated histone H4 peptide
T1 construct: N-terminally His6-tagged BRD4(1) (amino acids 67-152); made in house; host or cells: E. coli
Method in brief: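 TR-FRET measured displacement of a biotinylated tetra-acetylated H4 peptide from His6-BRD4(1) (aa 67-152, E. coli-expressed, typically 10 nM) in HEPES pH 7.5 buffer. Compounds were tested at 11 concentrations (0.1 nM–20 μM), with 10 min preincubation, then 1 h at 22 °C and ≥3 h at 4 °C. The 665/620 nm ratio gave IC50 by 4-parameter fit.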

MOLM-13 cell line = experiment: MOLM-13 cell proliferation assay (alamarBlue); assay type: cell-based; conditions: Homo sapiens, inhibition of proliferation of MOLM-13 cells (acute myeloid leukaemia), 96 hours incubation
Method: In accordance with the invention, the substances were tested for their ability to inhibit the proliferation of the MOLM-13 cell linie (Deutsche Sammlung für Mikroorganismen und Zellkulturen [German Collection of Microorganisms and Cell Cultures], ACC 554; acute myeloid leukaemia). Cell viability was determined by means of the alamarBlue® reagent (Invitrogen) in a Victor X3 Multilabel Reader (Perkin Elmer). The excitation wavelength was 530 nm and the emission wavelength […].
The MOLM-13 cells were sown at a density of 4000 cells/well in 100 μl of growth medium on 96-well microtitre plates. After overnight incubation at 37° C., the fluorescence values were determined (CI values). The plates were then treated with various substance dilutions and incubated at 37° C. for 96 hours. Subsequently, the fluorescence values were determined (CO values). For the data analysis, the CI values were subtracted from the CO values and the results were compared between cells which had been treated with various dilutions of the substance or only with buffer solution. The IC50 values (substance concentration needed for 50% inhibition of cell proliferation) were calculated therefrom.

[2] = molecular target: T2, BRD4 bromo domain 2 [BRD4(2)] (Homo sapiens, UniProt O60885); experiment: BRD4(2)/acetylated peptide H4 binding assay (TR-FRET); conditions: inhibition of interaction between His6-tagged BRD4(2) (amino acids 357-445) and acetylated histone H4 peptide
T2 construct: N-terminally His6-tagged BRD4(2) (amino acids 357-445); made in house; host or cells: E. coli
Method in brief: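 TR-FRET displacement of biotinylated tetra-acetylated H4 peptide from His6-BRD4(2) (aa 357-445, E. coli-expressed), 100 nM final, in HEPES pH 7.5 buffer; 11 compound concentrations 0.1 nM-20 μM, 10 min preincubation, then 1 h 22 °C plus ≥3 h 4 °C. 665/620 ratio read; IC50 by 4-parameter fit.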

SMILES	IC50 [1]	IC50 (MOLM-13 cell line)	IC50 [2]
CC(C)N1c2nc(Nc3ccc(C(=O)N4CC5(CCS5(=O)=O)C4)cc3)ccc2N(C)C(=O)[C@H]1C [Example 9, (3R)-6-({4-[(1,1-Dioxido-1-thia-6-azaspiro[3.3]hept-6-yl)carbonyl]phenyl}amino)-4-isopropyl-1,3-dimethyl-3,4-dihydropyrido[2,3-b]pyrazin-2(1H)-one]	150 nM	698 nM	130 nM
COc1cc(C(=O)N2CC3(CCS3(=O)=O)C2)ccc1Nc1ccc2c(n1)N(C1CCCC1)[C@H](C)C(=O)N2C [Example 10, (3R)-4-Cyclopentyl-6-({4-[(1,1-dioxido-1-thia-6-azaspiro[3.3]hept-6-yl)carbonyl]-2-methoxyphenyl}amino)-1,3-dimethyl-3,4-dihydropyrido[2,3-b]pyrazin-2(1H)-one]	165 nM	623 nM	230 nM
C[C@@H]1C(=O)N(C)c2ccc(Nc3ccc(C(=O)NC4CCN(C)CC4)cc3)nc2N1C1CCCC1 [Example 11, 4-{[(3R)-4-Cyclopentyl-1,3-dimethyl-2-oxo-1,2,3,4-tetrahydropyrido[2,3-b]pyrazin-6-yl]amino}-N-(1-methylpiperidin-4-yl)benzamide]	63 nM	444 nM	83 nM
COc1cc(C(=O)NC2CCN(C)CC2)ccc1Nc1ccc2c(n1)N(C1CCOCC1)[C@H](C)C(=O)N2C [Example 13, 4-{[(3R)-1,3-Dimethyl-2-oxo-4-(tetrahydro-2H-pyran-4-yl)-1,2,3,4-tetrahydropyrido[2,3-b]pyrazin-6-yl]amino}-3-methoxy-N-(1-methylpiperidin-4-yl)benzamide]	114 nM	212 nM	113 nM
COc1cc(C(=O)N[C@H]2CC[C@H](N3CCN(CC4CC4)CC3)CC2)ccc1Nc1ccc2c(n1)N(C1CCOCC1)[C@H](C)C(=O)N2C [Example 14, N-{trans-4-[4-(Cyclopropylmethyl)piperazin-1-yl]cyclohexyl}-4-{[(3R)-1,3-dimethyl-2-oxo-4-(tetrahydro-2H-pyran-4-yl)-1,2,3,4-tetrahydropyrido[2,3-b]pyrazin-6-yl]amino}-3-methoxybenzamide]	149 nM	233 nM	108 nM
C[C@@H]1C(=O)N(C)c2ccc(Nc3ccc(S(=O)(=O)N[C@H]4CC[C@H](N5CCN(CC6CC6)CC5)CC4)cc3)nc2N1C1CCOCC1 [Example 15, N-{trans-4-[4-(Cyclopropylmethyl)piperazin-1-yl]cyclohexyl}-4-{[(3R)-1,3-dimethyl-2-oxo-4-(tetrahydro-2H-pyran-4-yl)-1,2,3,4-tetrahydropyrido[2,3-b]pyrazin-6-yl]amino}benzenesulphonamide]	237 nM	62 nM	51 nM
C[C@@H]1C(=O)N(C)c2ccc(Nc3ccc(S(=O)(=O)N4CCOCC4)cc3)nc2N1C1CCOCC1 [Example 18, (3R)-1,3-dimethyl-6-{[4-(morpholin-4-ylsulphonyl)phenyl]amino}-4-(tetrahydro-2H-pyran-4-yl)-3,4-dihydropyrido[2,3-b]pyrazin-2(1H)-one]	56 nM	305 nM	40 nM
C[C@@H]1C(=O)N(C)c2ccc(Nc3ccc(S(=O)(=O)N4CCN(C)CC4)cc3)nc2N1C1CCOCC1 [Example 20, (3R)-1,3-dimethyl-6-({4-[(4-methylpiperazin-1-yl)sulphonyl]phenyl}amino)-4-(tetrahydro-2H-pyran-4-yl)-3,4-dihydropyrido[2,3-b]pyrazin-2(1H)-one]	154 nM	445 nM	96 nM
C[C@@H]1C(=O)N(C)c2ccc(Nc3ccc(S(=O)(=O)N4CCN(C)CC4)cc3F)nc2N1C1CCOCC1 [Example 21, (3R)-6-({2-fluoro-4-[(4-methylpiperazin-1-yl)sulphonyl]phenyl}amino)-1,3-dimethyl-4-(tetrahydro-2H-pyran-4-yl)-3,4-dihydropyrido[2,3-b]pyrazin-2(1H)-one]	106 nM	397 nM	87 nM
C[C@@H]1C(=O)N(C)c2ccc(Nc3ccc(S(=O)(=O)NC4CCN(C)CC4)cc3)nc2N1C1CCOCC1 [Example 22, 4-{[(3R)-1,3-dimethyl-2-oxo-4-(tetrahydro-2H-pyran-4-yl)-1,2,3,4-tetrahydropyrido[2,3-b]pyrazin-6-yl]amino}-N-(1-methylpiperidin-4-yl)benzenesulphonamide]	52 nM	203 nM	53 nM
C[C@@H]1C(=O)N(C)c2ccc(Nc3ccc(S(=O)(=O)NCCN4CCN(C)CC4)cc3)nc2N1C1CCOCC1 [Example 23, 4-{[(3R)-1,3-dimethyl-2-oxo-4-(tetrahydro-2H-pyran-4-yl)-1,2,3,4-tetrahydropyrido[2,3-b]pyrazin-6-yl]amino}-N-[2-(4-methylpiperazin-1-yl)ethyl]benzene-sulponamide]	46 nM	358 nM	65 nM
C[C@@H]1C(=O)N(C)c2ccc(Nc3ccc(S(=O)(=O)NCCN(C)C)cc3)nc2N1C1CCOCC1 [Example 24, N-[2-(dimethylamino)ethyl]-4-{[(3R)-1,3-dimethyl-2-oxo-4-(tetrahydro-2H-pyran-4-yl)-1,2,3,4-tetrahydropyrido[2,3-b]pyrazin-6-yl]amino}benzene-sulphonamide]	81 nM	554 nM	76 nM
C[C@@H]1C(=O)N(C)c2ccc(Nc3ccc(S(=O)(=O)NCc4ccccn4)cc3)nc2N1C1CCOCC1 [Example 25, 4-{[(3R)-1,3-dimethyl-2-oxo-4-(tetrahydro-2H-pyran-4-yl)-1,2,3,4-tetrahydropyrido[2,3-b]pyrazin-6-yl]amino}-N-(pyridin-2-ylmethyl)benzene-sulphonamide]	50 nM	388 nM	94 nM
COc1cc(Nc2ccc3c(n2)N(C2CCOCC2)[C@H](C)C(=O)N3C)ccc1S(=O)(=O)N1CCN(C)CC1 [Example 26, (3R)-6-({3-methoxy-4-[(4-methylpiperazin-1-yl)sulphonyl]phenyl}amino)-1,3-dimethyl-4-(tetrahydro-2H-pyran-4-yl)-3,4-dihydropyrido[2,3-b]pyrazin-2(1H)-one]	70 nM	296 nM	67 nM
C[C@@H]1C(=O)N(C)c2ccc(Nc3ccc(S(=O)(=O)N(C)C)cc3)nc2N1C1CCOCC1 [Example 27, 4-{[(3R)-1,3-dimethyl-2-oxo-4-(tetrahydro-2H-pyran-4-yl)-1,2,3,4-tetrahydropyrido[2,3-b]pyrazin-6-yl]amino}-N,N-dimethylbenzene-sulphonamide]	32 nM	202 nM	38 nM
C[C@@H]1C(=O)N(C)c2ccc(Nc3ccc(C(=O)NC4CN(C)C4)cc3)nc2N1C1CCCCC1 [Example 30, 4-{[(3R)-4-Cyclohexyl-1,3-dimethyl-2-oxo-1,2,3,4-tetrahydropyrido[2,3-b]pyrazin-6-yl]amino}-N-(1-methylazetidin-3-yl)benzamide]	119 nM	293 nM	140 nM
COc1cc(C(=O)N[C@H]2CC[C@H](N3CCN(CC4CC4)CC3)CC2)ccc1Nc1ccc2c(n1)N(Cc1ccccc1)[C@H](C)C(=O)N2C [Example 34, 4-{[(3R)-4-Benzyl-1,3-dimethyl-2-oxo-1,2,3,4-tetrahydropyrido[2,3-b]pyrazin-6-yl]amino}-N-{trans-4-[4-(cyclopropylmethyl)piperazin-1-yl]cyclohexyl}-3-methoxybenzamide]	256 nM	338 nM	104 nM
